Key:
[1] = tested on: oxazolone-induced colitis; assay: Mouse model of oxazolone-induced colitis; assay type: in vivo, BALB/C mice
Description: Assay 6: Mouse Model of Oxazolone-Induced Colitis
Oxazolone-induced colitis is an experimental model that has a histological resemblance to human ulcerative colitis (Heller et al. Immunology, 2002, 17, 629-638). Adult BALB/C mice from Harlan were used in the assay. On day 1, animals were lightly anesthetized with isoflurane and the hairs between the shoulder were carefully removed before oxazolone (4%, 150 μL, 4:1 acetone: olive oil formulation) or vehicle solution was slowly applied for skin sensitization. Seven days after skin sensitization, the mice were fasted around 6 hours prior, anesthetized with ketamine/xylazine injection, and a 1 mL syringe equipped with a 3.5-F catheter, filled with oxazolone solution, was inserted carefully about 4 cm into the colon of the mouse. Following insertion, 50 μL of the oxazolone solution (0.8% in 1:1 ethanol:water formulation) was injected very slowly (over 30 sec using an injection pump) into the colon. Drug treatment (PO, QD or BID or TID) or vehicle was initiated a day prior to the oxazolone intrarectal (IR) challenge. Two-day post oxazolone intrarectal challenge, the disease was assessed by treatment-blinded experimenters for each mouse according to the criteria score: stool consistency score (0, normal; 2, loose; 4, diarrhea), gross bleeding score (0, absence; 2, blood tinged; 4, presence); Combined stool score endpoint=stool consistency score+stool blood score.
Select compounds were tested in the assay.

[2] = tested on: IL-2 stimulated STAT5 phosphorylation in Tall-1 human T cell line (JAK3); assay: Cellular JAK3 potency assay: inhibition of IL-2 stimulated pSTAT5 in Tall-1 T cells; assay type: cell-based; settings: IL-2 stimulated pSTAT5, Tall-1 T cells
Method in brief: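 AlphaLISA SureFire Ultra measures STAT5 Tyr694/699 phosphorylation in lysed Tall-1 human T cells. Cells were exposed to compound for 1 h at 37 °C before a 30 min IL-2 challenge (300 ng/ml final). Values are pIC50 means with standard deviation from signal-versus-concentration curves.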

JAK3 = JAK3 (Homo sapiens (Human), UniProt P52333); assay: Biochemical JAK3 kinase assay (LanthaScreen); settings: for JAK3 (pKi)-JAK1 (pKi): selectivity JAK3 over JAK1, difference of pKi
Sequence of JAK3 (P52333 whole entry): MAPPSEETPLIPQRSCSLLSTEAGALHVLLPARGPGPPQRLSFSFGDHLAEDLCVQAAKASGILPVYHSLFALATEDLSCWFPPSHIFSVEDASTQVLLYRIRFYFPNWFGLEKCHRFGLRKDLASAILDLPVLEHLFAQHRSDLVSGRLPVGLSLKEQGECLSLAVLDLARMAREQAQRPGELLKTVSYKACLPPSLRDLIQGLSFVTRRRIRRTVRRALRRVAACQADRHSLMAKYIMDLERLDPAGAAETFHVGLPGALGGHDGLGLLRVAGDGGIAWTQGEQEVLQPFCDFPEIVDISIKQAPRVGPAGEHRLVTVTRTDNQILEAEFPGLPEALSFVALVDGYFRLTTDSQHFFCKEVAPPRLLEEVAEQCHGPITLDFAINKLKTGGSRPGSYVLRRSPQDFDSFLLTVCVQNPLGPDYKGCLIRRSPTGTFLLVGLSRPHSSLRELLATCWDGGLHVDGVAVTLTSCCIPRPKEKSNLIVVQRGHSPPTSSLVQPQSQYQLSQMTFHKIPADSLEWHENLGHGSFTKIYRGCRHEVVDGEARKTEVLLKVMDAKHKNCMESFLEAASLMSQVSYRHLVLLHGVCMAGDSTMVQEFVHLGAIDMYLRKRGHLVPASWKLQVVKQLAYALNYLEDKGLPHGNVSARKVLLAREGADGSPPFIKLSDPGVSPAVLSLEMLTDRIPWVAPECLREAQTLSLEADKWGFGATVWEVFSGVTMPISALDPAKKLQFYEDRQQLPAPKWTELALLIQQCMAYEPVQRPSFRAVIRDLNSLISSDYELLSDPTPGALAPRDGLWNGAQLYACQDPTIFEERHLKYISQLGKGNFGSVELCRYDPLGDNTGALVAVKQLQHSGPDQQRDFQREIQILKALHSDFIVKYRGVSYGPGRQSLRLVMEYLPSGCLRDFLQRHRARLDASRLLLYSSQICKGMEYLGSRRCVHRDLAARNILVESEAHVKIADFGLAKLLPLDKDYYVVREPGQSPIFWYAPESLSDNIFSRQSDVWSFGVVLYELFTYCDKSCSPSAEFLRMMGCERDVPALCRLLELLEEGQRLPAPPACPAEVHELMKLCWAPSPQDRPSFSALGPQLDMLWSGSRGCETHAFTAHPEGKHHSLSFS
Method in brief: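 GST-JAK + GFP-STAT1 peptide, HEPES pH 7.5/MgCl2/EGTA/Brij-35 buffer; cpd preincubation 1 h RT; ATP start, 1 h RT; stop with 10 mM EDTA + 2 nM Tb-anti-pSTAT1; TR-FRET 520/495. 4-parameter IC50 → pKi (Cheng-Prusoff).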

Row | Compound | combined stool score endpoint as compared with vehicle treated animals ([1]; dose of 1 mg/kg (PO, BID)) | combined stool score endpoint as compared with vehicle treated animals ([1]; dose of 3 mg/kg (PO, BID)) | Tall-1 (pIC50) [2] | JAK 3 (pKi) (JAK3) | JAK3 (pKi)-JAK1 (pKi) (JAK3)
1 | C=CC(=O)N1CC(CCn2c(=O)ccc3cnc(Nc4ccc(N5CCN(C(=O)CSC)CC5)cc4)nc32)C1 [Example 13, 8-(2-(1-acryloylazetidin-3-yl)ethyl)-2-((4-(4-(2-(methylthio)acetyl)piperazin-1-yl)phenyl)amino)pyrido[2,3-d]pyrimidin-7(8H)-one] | statistically significant decrease | statistically significant decrease | B (B represents a pC50 value between 6.7 (included) and 7.5 (IC50 between 200 nM and 32 nM)) | B (B represents pKi value between 9 and 10 (Ki between 1 nM and 0.1 nM)) | A (A represents a value of 3 or above)
2 | C=CC(=O)N1CC(CCn2c(=O)ccc3cnc(Nc4ccc(N5CCN(C(C)=O)CC5)cc4)nc32)C1 [Example 2, 2-((4-(4-acetylpiperazin-1-yl)phenyl)amino)-8-(2-(1-acryloylazetidin-3-yl)ethyl)pyrido[2,3-d]pyrimidin-7(8H)-one] | statistically significant decrease |  | B (B represents a pC50 value between 6.7 (included) and 7.5 (IC50 between 200 nM and 32 nM)) | A (A represents a pKi value≥10 (Ki≤0.1 nM)) | A (A represents a value of 3 or above)
3 | C=CC(=O)N1CCN(CCn2c(=O)ccc3cnc(Nc4ccc(N5CCN(C(=O)CCSC)CC5)cc4)nc32)CC1 [Example 4, 8-(2-(4-acryloylpiperazin-1-yl)ethyl)-2-((4-(4-(3-(methylthio)propanoyl)piperazin-1-yl)phenyl)amino)pyrido[2,3-d]pyrimidin-7(8H)-one] | statistically significant decrease |  | B (B represents a pC50 value between 6.7 (included) and 7.5 (IC50 between 200 nM and 32 nM)) | B (B represents pKi value between 9 and 10 (Ki between 1 nM and 0.1 nM)) | A (A represents a value of 3 or above)
4 | C=CC(=O)N1CCN(CCn2c(=O)ccc3cnc(Nc4ccc(N5CCN(C)CC5)cc4)nc32)CC1 [Example 1, 8-(2-(4-acryloylpiperazin-1-yl)ethyl)-2-((4-(4-methylpiperazin-1-yl)phenyl)amino)pyrido[2,3-d]pyrimidin-7(8H)-one] | statistically significant decrease | statistically significant decrease | B (B represents a pC50 value between 6.7 (included) and 7.5 (IC50 between 200 nM and 32 nM)) | B (B represents pKi value between 9 and 10 (Ki between 1 nM and 0.1 nM)) | A (A represents a value of 3 or above)
5 | C=CC(=O)N1CC(CCn2c(=O)ccc3cnc(Nc4cccc(N5CCN(C(=O)CCSC)CC5)c4)nc32)C1 [Example 7, 8-(2-(1-acryloylazetidin-3-yl)ethyl)-2-((3-(4-(3-(methylthio)propanoyl)piperazin-1-yl)phenyl)amino)pyrido[2,3-d]pyrimidin-7(8H)-one] | statistically significant decrease |  | B (B represents a pC50 value between 6.7 (included) and 7.5 (IC50 between 200 nM and 32 nM)) | B (B represents pKi value between 9 and 10 (Ki between 1 nM and 0.1 nM)) | A (A represents a value of 3 or above)
6 | C=CC(=O)N1CCN(CCn2c(=O)ccc3cnc(Nc4cnn(C)c4)nc32)[C@@H](CC)C1 [Example 12, (S)-8-(2-(4-acryloyl-2-ethylpiperazin-1-yl)ethyl)-2-((1-methyl-1H-pyrazol-4-yl)amino)pyrido[2,3-d]pyrimidin-7(8H)-one] | statistically significant decrease |  | B (B represents a pC50 value between 6.7 (included) and 7.5 (IC50 between 200 nM and 32 nM)) | B (B represents pKi value between 9 and 10 (Ki between 1 nM and 0.1 nM)) | A (A represents a value of 3 or above)
7 | C=CC(=O)N1CC(CCn2c(=O)ccc3cnc(Nc4cccc(CN5CCN(C(=O)N(C)C)CC5)c4)nc32)C1 [Example 5, 4-(3-((8-(2-(1-acryloylazetidin-3-yl)ethyl)-7-oxo-7,8-dihydropyrido[2,3-d]pyrimidin-2-yl)amino)benzyl)-N,N-dimethylpiperazine-1-carboxamide] | statistically significant decrease | statistically significant decrease | B (B represents a pC50 value between 6.7 (included) and 7.5 (IC50 between 200 nM and 32 nM)) | A (A represents a pKi value≥10 (Ki≤0.1 nM)) | A (A represents a value of 3 or above)

— patent US11697648B2, “Fused pyrimidine pyridinone compounds as JAK inhibitors” (THERAVANCE BIOPHARMA R&D IP, LLC, priority 2019, dated 2023)
